Measurements as given in US20080063628A1, “METHODS TO PROMOTE CELL DIFFERENTIATION” (priority 2006, published 2008).

Key:
[1] = tested on: second amniotic fluid-derived cell line; experiment: Two sequential low dose trichostatin A treatments, gene expression by RT-PCR (Example 7); format: cell-based, human; settings: 0.5 μM, after 72 hours, remainder of the experiment
[2] = tested on: late passage pancreatic-derived stromal cells; experiment: Chronic trichostatin A treatment, gene expression by RT-PCR (Example 5); format: cell-based, human
Description: Pancreatic-derived stromal cells were obtained according to the methods described in Example 13. Cells were seeded into a 24-well tissue culture plate at a density of 5000/cm^2 and cultured in DMEM with 10% FBS under standard cell culture conditions until confluent. After the cells reached confluency, sample wells were treated with either 1.25 μM or 2.5 μM trichostatin A diluted in DMSO and medium; control wells received DMSO at an equivalent concentration. At 24 hour intervals over the three day culture period, cultures underwent a complete medium change, and a fresh dilution of trichostatin A or DMSO was added as appropriate. RNA samples were obtained from treated cultures daily after the initial addition of trichostatin A or DMSO. Culture medium was removed, cells were washed with PBS, and RLT lysis buffer with β-mercaptoethanol (Qiagen) was added. RNA was purified using the RNeasy Mini Kit (Qiagen), and RNA quantity and quality was determined using a spectrophotometer. cDNA was made using the iScript cDNA synthesis kit (BioRad).
Expression levels of Sox17, HNF-3 beta, Pdx-1, insulin, and glucagon were determined by RT-PCR. Samples of 20 ng cDNA were used in each reaction, which was performed on the Applied Biosystems 7500, according to the methods described in Example 15. Data were analyzed using the accompanying software. Human pancreas cDNA was included as a control. Results were normalized against GAPDH expression levels.
Real-time PCR amplifcation and quantitative analysis. Unless otherwise stated, all reagents were purchased from Applied Biosystems. Real-time PCR reactions were performed using the ABI PRISM™ 7500 Sequence Detection System. TAQMAN™ FAST UNIVERSAL PCR MASTER MIX™ (ABI, CA) was used with 20 ng of reverse transcribed RNA in a total reaction volume of 20 μl. Each cDNA sample was run in duplicate to allow correction of pipetting errors. Primers and FAM-labeled TAQMAN™ probes were used at concentrations of 200 nM. The level of expression for each target gene was normalized using the pre-developed Applied Biosystem's human glyceraldehyde-3-phosphate dehydrogenase (GAPDH) endogenous control kit. Primers and probes were designed using either ABI PRISM PRIMER EXPRESS™ software or a pre-developed ABI gene analysis kit. For each gene, either one of the primers or the probe were designed to be exon-boundary spanning. This eliminated the possibility of the primers/probe binding to any genomic DNA present. The primer and probe sets are listed as follows: Pdx-1 (Hs00426216), Insulin (Hs00355773), glucagon (Hs00174967), and FoxA2 (HNF 3-beta) (Hs00232764). The remaining primers were designed using the PRIMERS program (ABI, CA). After an initial 95° C. incubation for 20 sec, samples were cycled 40 times in two stages: a denaturation step at 95° C. for 3 sec, followed by an annealing/extension step at 60° C. for 30 sec.
For each primer/probe set, a cycle time value was determined as the cycle number at which the fluorescence intensity of the PCR reaction reached a specific value in the middle of the exponential region of amplification. An increase in expression of a gene corresponded to a decrease in the number of cycles required for the fluorescence intensity to reach this value.

[3] = 1.25 μM renewed daily, 24 hours
[4] = 1.25 μM renewed daily, 48 hours
[5] = 1.25 μM renewed daily, 72 hours

CC(/C=C/C(=O)NO)=C\[C@@H](C)C(=O)c1ccc(N(C)C)cc1 [trichostatin A]
HNF-3 beta RT-PCR detection cycle [1]: 37 cycles | HNF-3 beta gene expression [2, 3]: +++ (detectable at less than 35 cycles by RT-PCR with std error less than 0.9) | Insulin gene expression [2, 3]: nd (not detectable at >40 cycles by RT-PCR) | PDX-1 gene expression [2, 3]: + (detectable between 35 and 40 cycles by RT-PCR) | Sox17 gene expression [2, 3]: +++ (detectable at less than 35 cycles by RT-PCR with std error less than 0.9) | glucagon gene expression [2, 3]: + (detectable between 35 and 40 cycles by RT-PCR) | HNF-3b gene expression [2, 4]: ++ (detectable at less than 35 cycles by RT-PCR with std error greater than 0.9) | Insulin gene expression [2, 4]: nd (not detectable at >40 cycles by RT-PCR) | PDX-1 gene expression [2, 4]: +++ (detectable at less than 35 cycles by RT-PCR with std error less than 0.9) | Sox17 gene expression [2, 4]: +++ (detectable at less than 35 cycles by RT-PCR with std error less than 0.9) | glucagon gene expression [2, 4]: + (detectable between 35 and 40 cycles by RT-PCR) | HNF-3b gene expression [2, 5]: +++ (detectable at less than 35 cycles by RT-PCR with std error less than 0.9) | Insulin gene expression [2, 5]: nd (not detectable at >40 cycles by RT-PCR) | PDX-1 gene expression [2, 5]: +++ (detectable at less than 35 cycles by RT-PCR with std error less than 0.9) | Sox17 gene expression [2, 5]: +++ (detectable at less than 35 cycles by RT-PCR with std error less than 0.9) | glucagon gene expression [2, 5]: + (detectable between 35 and 40 cycles by RT-PCR) | HNF-3 beta gene expression ([2]; 2.5 μM renewed daily, 24 hours): + (detectable between 35 and 40 cycles by RT-PCR) | Insulin gene expression ([2]; 2.5 μM renewed daily, 24 hours): nd (not detectable at >40 cycles by RT-PCR) | PDX-1 gene expression ([2]; 2.5 μM renewed daily, 24 hours): +++ (detectable at less than 35 cycles by RT-PCR with std error less than 0.9) | Sox17 gene expression ([2]; 2.5 μM renewed daily, 24 hours): +++ (detectable at less than 35 cycles by RT-PCR with std error less than 0.9) | glucagon gene expression ([2]; 2.5 μM renewed daily, 24 hours): nd (not detectable at >40 cycles by RT-PCR) | HNF-3b gene expression ([2]; 2.5 μM renewed daily, 48 hours): + (detectable between 35 and 40 cycles by RT-PCR) | Insulin gene expression ([2]; 2.5 μM renewed daily, 48 hours): nd (not detectable at >40 cycles by RT-PCR) | PDX-1 gene expression ([2]; 2.5 μM renewed daily, 48 hours): +++ (detectable at less than 35 cycles by RT-PCR with std error less than 0.9) | Sox17 gene expression ([2]; 2.5 μM renewed daily, 48 hours): +++ (detectable at less than 35 cycles by RT-PCR with std error less than 0.9) | glucagon gene expression ([2]; 2.5 μM renewed daily, 48 hours): + (detectable between 35 and 40 cycles by RT-PCR) | HNF-3b gene expression ([2]; 2.5 μM renewed daily, 72 hours): +++ (detectable at less than 35 cycles by RT-PCR with std error less than 0.9) | Insulin gene expression ([2]; 2.5 μM renewed daily, 72 hours): nd (not detectable at >40 cycles by RT-PCR) | PDX-1 gene expression ([2]; 2.5 μM renewed daily, 72 hours): + (detectable between 35 and 40 cycles by RT-PCR) | Sox17 gene expression ([2]; 2.5 μM renewed daily, 72 hours): +++ (detectable at less than 35 cycles by RT-PCR with std error less than 0.9) | glucagon gene expression ([2]; 2.5 μM renewed daily, 72 hours): nd (not detectable at >40 cycles by RT-PCR)
